Assay results as given in the supplement of paper PMC10307832.

How the values were obtained:
Test in all cases: relative viability (nuclei count vs DMSO), 5 days (fraction); higher = more cells survive
[1] = test system: 201T
How it was run: (§1)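 One day after seeding in 1536-well plates, lung cancer cell lines were dosed by pin tool. Dosing was either single-drug or a fixed anchor-drug dose plus five library-drug doses (not always all listed) in √10 steps. After 5 days, nuclei were stained in one fix-and-stain step and counted on 4× images, and relative viability is the nuclei count of treated wells over that of vehicle wells, given as the median of duplicate plates.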

[2] = test system: COR-L23
How it was run: as §1

[3] = test system: EPLC-272H
How it was run: as §1

[4] = test system: H3255
How it was run: as §1

[5] = test system: HCC-44
How it was run: as §1

[6] = test system: LOU-NH91
How it was run: as §1

[7] = test system: NCI-H1650
How it was run: as §1

[8] = test system: NCI-H1734
How it was run: as §1

[9] = test system: NCI-H1793
How it was run: as §1

[10] = test system: NCI-H1993
How it was run: as §1

[11] = test system: NCI-H2023
How it was run: as §1

[12] = test system: NCI-H2085
How it was run: as §1

[13] = test system: NCI-H2170
How it was run: as §1

[14] = test system: NCI-H2347
How it was run: as §1

[15] = test system: NCI-H2405
How it was run: as §1

[16] = test system: NCI-H3122
How it was run: as §1

[17] = test system: NCI-H441
How it was run: as §1

[18] = test system: NCI-H520
How it was run: as §1

[19] = test system: NCI-H647
How it was run: as §1

[20] = test system: PC-14
How it was run: as §1

[21] = test system: RERF-LC-KJ
How it was run: as §1

[22] = test system: SW 900
How it was run: as §1

CC1(C)CCC(c2ccc(Cl)cc2)=C(CN2CCN(c3ccc(C(=O)NS(=O)(=O)c4ccc(N[C@H](CCN5CCOCC5)CSc5ccccc5)c(S(=O)(=O)C(F)(F)F)c4)cc3)CC2)C1 [Navitoclax] + O=C(c1cc(Cc2n[nH]c(=O)c3ccccc23)ccc1F)N1CCN(C(=O)C2CC2)CC1 [Olaparib] (partner 8 µM) was tested, and the relative viability ([1]; first compound 0.005 µM) was 0.829, the relative viability ([1]; first compound 0.01581 µM) was 0.871 and the relative viability ([1]; first compound 0.05 µM) was 0.806. For the same compound, the relative viability ([1]; first compound 0.1581 µM) was 0.832, the relative viability ([1]; first compound 0.5 µM) was 0.85 and the relative viability ([2]; first compound 0.005 µM) was 0.374. It also gave a relative viability ([2]; first compound 0.01581 µM) of 0.405, a relative viability ([2]; first compound 0.05 µM) of 0.375 and a relative viability ([2]; first compound 0.1581 µM) of 0.367. It also gave a relative viability ([2]; first compound 0.5 µM) of 0.398, a relative viability ([3]; first compound 0.005 µM) of 0.877 and a relative viability ([3]; first compound 0.01581 µM) of 0.79. The relative viability ([3]; first compound 0.05 µM) was 0.644, the relative viability ([3]; first compound 0.1581 µM) was 0.714 and the relative viability ([3]; first compound 0.5 µM) was 1.18. It also gave a relative viability ([4]; first compound 0.005 µM) of 0.563, a relative viability ([4]; first compound 0.01581 µM) of 0.626 and a relative viability ([4]; first compound 0.05 µM) of 0.57. For the same compound, the relative viability ([4]; first compound 0.1581 µM) was 0.57, the relative viability ([4]; first compound 0.5 µM) was 0.506 and the relative viability ([5]; first compound 0.005 µM) was 0.971. For the same compound, the relative viability ([5]; first compound 0.01581 µM) was 0.98, the relative viability ([5]; first compound 0.05 µM) was 0.887 and the relative viability ([5]; first compound 0.1581 µM) was 0.943. The relative viability ([5]; first compound 0.5 µM) was 0.932, the relative viability ([6]; first compound 0.005 µM) was 0.909 and the relative viability ([6]; first compound 0.01581 µM) was 0.928. For the same compound, the relative viability ([6]; first compound 0.05 µM) was 0.697, the relative viability ([6]; first compound 0.1581 µM) was 0.658 and the relative viability ([6]; first compound 0.5 µM) was 0.37. It also gave a relative viability ([7]; first compound 0.005 µM) of 0.67, a relative viability ([7]; first compound 0.01581 µM) of 0.829 and a relative viability ([7]; first compound 0.05 µM) of 0.803. It also gave a relative viability ([7]; first compound 0.1581 µM) of 0.784, a relative viability ([7]; first compound 0.5 µM) of 0.649 and a relative viability ([8]; first compound 0.005 µM) of 0.626. The relative viability ([8]; first compound 0.01581 µM) was 0.67, the relative viability ([8]; first compound 0.1581 µM) was 0.534 and the relative viability ([8]; first compound 0.5 µM) was 0.535. It also gave a relative viability ([9]; first compound 0.005 µM) of 0.903, a relative viability ([9]; first compound 0.01581 µM) of 1.05 and a relative viability ([9]; first compound 0.1581 µM) of 0.885. It also gave a relative viability ([9]; first compound 0.5 µM) of 0.684, a relative viability ([10]; first compound 0.005 µM) of 1.09 and a relative viability ([10]; first compound 0.01581 µM) of 1.32. It also gave a relative viability ([10]; first compound 0.05 µM) of 0.936, a relative viability ([10]; first compound 0.1581 µM) of 0.984 and a relative viability ([10]; first compound 0.5 µM) of 1.02. For the same compound, the relative viability ([11]; first compound 0.005 µM) was 0.445, the relative viability ([11]; first compound 0.01581 µM) was 0.47 and the relative viability ([11]; first compound 0.05 µM) was 0.534. The relative viability ([11]; first compound 0.1581 µM) was 0.442, the relative viability ([11]; first compound 0.5 µM) was 0.496 and the relative viability ([12]; first compound 0.005 µM) was 0.74. It also gave a relative viability ([12]; first compound 0.01581 µM) of 0.864, a relative viability ([12]; first compound 0.05 µM) of 0.596 and a relative viability ([12]; first compound 0.1581 µM) of 0.746. It also gave a relative viability ([12]; first compound 0.5 µM) of 0.815, a relative viability ([13]; first compound 0.005 µM) of 0.574 and a relative viability ([13]; first compound 0.01581 µM) of 0.62. The relative viability ([13]; first compound 0.05 µM) was 0.53, the relative viability ([13]; first compound 0.1581 µM) was 0.58 and the relative viability ([13]; first compound 0.5 µM) was 0.56. It also gave a relative viability ([14]; first compound 0.005 µM) of 0.558, a relative viability ([14]; first compound 0.01581 µM) of 0.585 and a relative viability ([14]; first compound 0.05 µM) of 0.537. For the same compound, the relative viability ([14]; first compound 0.1581 µM) was 0.61, the relative viability ([14]; first compound 0.5 µM) was 0.51 and the relative viability ([15]; first compound 0.005 µM) was 0.803. The relative viability ([15]; first compound 0.01581 µM) was 0.881, the relative viability ([15]; first compound 0.05 µM) was 0.953 and the relative viability ([15]; first compound 0.1581 µM) was 0.801. For the same compound, the relative viability ([15]; first compound 0.5 µM) was 0.739, the relative viability ([16]; first compound 0.005 µM) was 0.605 and the relative viability ([16]; first compound 0.01581 µM) was 0.577. It also gave a relative viability ([16]; first compound 0.05 µM) of 0.576, a relative viability ([16]; first compound 0.1581 µM) of 0.655 and a relative viability ([16]; first compound 0.5 µM) of 0.597. For the same compound, the relative viability ([17]; first compound 0.005 µM) was 0.529, the relative viability ([17]; first compound 0.01581 µM) was 0.528 and the relative viability ([17]; first compound 0.05 µM) was 0.627. For the same compound, the relative viability ([17]; first compound 0.1581 µM) was 0.429, the relative viability ([17]; first compound 0.5 µM) was 0.5 and the relative viability ([18]; first compound 0.005 µM) was 0.346. The relative viability ([18]; first compound 0.01581 µM) was 0.299, the relative viability ([18]; first compound 0.05 µM) was 0.336 and the relative viability ([18]; first compound 0.1581 µM) was 0.318. For the same compound, the relative viability ([18]; first compound 0.5 µM) was 0.33, the relative viability ([19]; first compound 0.005 µM) was 0.47 and the relative viability ([19]; first compound 0.01581 µM) was 0.605. For the same compound, the relative viability ([19]; first compound 0.05 µM) was 0.498, the relative viability ([19]; first compound 0.1581 µM) was 0.471 and the relative viability ([19]; first compound 0.5 µM) was 0.288. For the same compound, the relative viability ([20]; first compound 0.005 µM) was 0.266, the relative viability ([20]; first compound 0.01581 µM) was 0.28 and the relative viability ([20]; first compound 0.05 µM) was 0.283. The relative viability ([20]; first compound 0.1581 µM) was 0.219, the relative viability ([20]; first compound 0.5 µM) was 0.235 and the relative viability ([21]; first compound 0.005 µM) was 0.887. For the same compound, the relative viability ([21]; first compound 0.01581 µM) was 0.796, the relative viability ([21]; first compound 0.05 µM) was 0.917 and the relative viability ([21]; first compound 0.1581 µM) was 0.861. It also gave a relative viability ([21]; first compound 0.5 µM) of 0.983, a relative viability ([22]; first compound 0.005 µM) of 0.936 and a relative viability ([22]; first compound 0.01581 µM) of 1.01. For the same compound, the relative viability ([22]; first compound 0.1581 µM) was 0.947 and the relative viability ([22]; first compound 0.5 µM) was 0.841.
